{
  "source": "patent US20260219259A1",
  "about": "“METHOD FOR QUANTIFYING INSULIN SECRETION CAPACITY IN HUMAN CELL” (JUNTENDO EDUCATIONAL FOUNDATION, priority 2023, published 2026)",
  "tested_on": "Huh7 cells",
  "test": "Insulin production in Huh7 cells expressing Ngn3, Mafa and Pdx1, insulin quantified using HISCL HI-1000",
  "format": "cell-based, human",
  "conditions": "concentration of from 1 to 30 nM; FIG. 8",
  "description": "The recombinant SW872 cells that express 3 genes Ngn3, Mafa, and Pdx1 used here were expanded by long-term culture, and the resulting cells were subjected to the same experiment as above. […] Accordingly, a liver-derived cell line Huh7 was infected with Sendai virus vectors (TOKIWA-Bio Inc.) that express 3 genes Ngn3, Mafa, and Pdx1, cultured in a differentiation medium for β cells for 24 hours, and then transfected with expression plasmids of human KLF9 gene and human UCN3 gene using Lipofectamine 3000, and the amount of insulin produced was measured 5 days later. The expression plasmids of human KLF9 gene and human UCN3 gene were prepared by PCR and In-Fusion ligation reaction in the same manner as the method described in Example 3(1) using primers shown in SEQ ID NOs: 65 and 66 and SEQ ID NOS: 69 and 70. pEBMulti-Hyg was used as a negative control, and pEBMulti-hIns was used as a positive control. […] Insulin was quantified using HISCL HI-1000 (Sysmex Corp.). […]\nHuman SW872 cells that produce hIns-HiBiT5 were infected with Sendai virus vectors that express 3 genes Ngn3, Mafa, and Pdx1 in the same manner as in Example 4, and cultured in a differentiation medium for β cells for 24 hours. […] The method for quantifying insulin was performed in the same manner as in Example 4. […]",
  "data": [
    {"compound": "CCCC(CCC)C(=O)O", "note": "[valproic acid]", "values": [
      {"measurement": "insulin production from the Huh7 cells", "result": "promoted insulin production"}
    ]}
  ]
}
